Experimental data from patent publication US9233915B2, “Polyunsaturated fatty acid monoglycerides, derivatives, and uses thereof” (SCF PHARMA INC., priority 2007, dated 2016).

Legend:
[1] = system: HCT116 human colon cancer cell line; assay: cell growth assay (trypan blue cell count) on HCT116; type: cell-based; details: HCT-116, 48 h, read-out: growth inhibition of the cancer cells
Procedure: (§1) The A549 and HCT-116 cells were maintained in RPMI 1640 or McCoy's 5A (Wisent, St-Bruno, QC, Canada) containing 10% FBS and 10 units/ml penicillin, 100 μg/ml streptomycin. Cells were grown in a 5% CO2 incubator at 37° C. Cells were untreated or treated with SCF compounds
(§2) A predefined number of either A549 or HCT-116 cells were allowed to grow in 24 wells plates (1×10^4 cells/well) for 3 days until cells reached 70% confluence. Then, cells were starved in RPMI or McCoy's 5A medium without FBS for 8 h. Then, the culture medium was replaced with RPMI or McCoy's 5A+0.2% FBS and 3 μM of test compounds were added to each well. Culture media were changed every 24 h and cells were treated for 48 h. After 48, the medium was removed from the culture plates and 0.05% trypsin-EDTA was used to detach the cells from the surface of the culture plates. The harvested cells were counted, both the viable and dead ones, using a Countess Automated Cell Counter (Invitrogen Inc.). Briefly, for each condition an appropriated cell dilution was prepared from the harvested cells and an aliquot was mixed with an equal volume of 0.4% trypan blue, and 10 μl was transferred into each side of a Countess™ chamber slide. All concentrations tested were performed in triplicata and were representative of 5 independent experiments.

HCT-116 cells = assay: in vivo tumor xenograft, HCT-116 in CD-1 nude mice; details: per os 618 mg/kg daily from the day after the tumor reach; vs control (corn oil)
Procedure: In vivo tumor xenograft experiments. Male and female CD-1 nude mice were obtained from Charles River Laboratories (Montreal, QC, Canada). All studies involving mice were approved by the institutional animal care committee. Human A549 or HCT-116 xenografts were established in 4-week-old CD-1 nude mice. Mice were subcutaneously inoculated with 0.2 ml of a solution of 1×10^6 A549 or HCT-116 cells on the right flank. Mice were randomly assigned into 2 groups, control (untreated) and compound 1, 5 or 6 treated (n=6 per group). […] Tumor volumes (V) were calculated using the formula: V=(a×b2)/2, where “a” is the largest superficial diameter and “b” the smallest.

[2] = human, in vivo
Procedure: Controlled amount of boiled pasta was eaten after the 4 h time point. An initial blood sample (400 μl) was collected using a lancet at a fingertip into heparin tubes followed by samples at 1, 2, 3, 4, 5, 6, 7 and 8 hour after ingestion. Plasma was separated and immediately analysed for fatty acid composition.
The relative bioavailability of fatty acids from composition 2 compared to fish oil is calculated with the formula:
The AUC (calculates area under the curve for concentration vs. time data) is calculated using linear trapezoidal rule. […] The relative bioavailability of compound 1 and compound 5 is calculated with the same formula:

[3] = system: A549 human lung cancer cell line; assay: cell growth assay (trypan blue cell count) on A549; type: cell-based; details: 48 h, read-out: growth inhibition of the cancer cells
Procedure: as §1, §2

A549 cells = assay: in vivo tumor xenograft, A549 in CD-1 nude mice; details: per os 618 mg/kg daily from the day after cell inoculation; vs control (corn oil)
Procedure: In vivo tumor xenograft experiments. Male and female CD-1 nude mice were obtained from Charles River Laboratories (Montreal, QC, Canada). All studies involving mice were approved by the institutional animal care committee. Human A549 or HCT-116 xenografts were established in 4-week-old CD-1 nude mice. Mice were subcutaneously inoculated with 0.2 ml of a solution of 1×10^6 A549 or HCT-116 cells on the right flank. Mice were randomly assigned into 2 groups, control (untreated) and compound 1, 5 or 6 treated (n=6 per group). Compound 1, 5 or 6 were administrated per os (618 mg/kg) daily following cell inoculation. Tumor volumes (V) were calculated using the formula: V=(a×b2)/2, where “a” is the largest superficial diameter and “b” the smallest.

SMILES	inhibition at 3 µM [1]	tumor progression (tumor volume) (HCT-116 cells)	relative bioavailability of compound 1 compared to compound 5 [2]	inhibition at 3 µM [3]	tumor progression (tumor volume) (A549 cells)
CC/C=C\C/C=C\C/C=C\C/C=C\C/C=C\CCCCCC(=O)OCC(O)CO (stereo not shown) [compound 1]	> 50%	tumor progression was immediately stopped and tumor volume significantly decrease over time	2.20	–	–
CC/C=C\C/C=C\C/C=C\C/C=C\C/C=C\C/C=C\CCC(=O)OCC(O)CO (stereo not shown) [compound 5]	–	–	–	> 50%	tumor progression was significantly reduced
CC/C=C\C/C=C\C/C=C\C/C=C\C/C=C\CCCC(=O)OCC(O)CO (stereo not shown) [compound 6]	> 50%	tumor progression was immediately stopped and tumor volume slightly decrease over time	–	–	–
